# Experiments:
# Type in all cases: cell-based, human
# [1] = tested on: MCF7/FasR and MCF7/FasR/Bcl-xL cells; assay: ATP quantification (CellTiter-Glo); conditions: increasing concentration, 458 nm irradiation, 72 h
# Procedure: (§1) ATP and glutathione (GSH) contents were measured with the Promega CellTiter-Glo (Cat#G7570) and GSH-Glo (cat#6911) luminescent assays, respectively, according to the manufacturer’s recommendations.
# (§2) Figure 13 Evaluation of apoptotic biomarkers. MCF7/FasR and MCF7/FasR/Bcl-xL cells were irradiated at 458 nm in presence of the indicated concentration of complex 4a or treated with […] TNFα for 72 h. (A) Cytosolic extracts from MCF7/FasR and MCF7/FasR/Bcl-xL cells were separated by SDS-PAGE and probed with anti-PARP, anti-caspase-7 and anti-caspase-8. Migrations indicated are: full-length PARP p113, cleaved PARP p89, full-length caspase-7 and full-length caspase-8. (B) MTT, ATP and GSH assays were evaluated in duplicate samples. Data are expressed as percent (%) of untreated cells and are the means of 3 independent experiments (***, p < 0.0001, NS, not significant).
# [2] = tested on: MCF7/FasR and MCF7/FasR/Bcl-xL cells; assay: GSH quantification (GSH-Glo); conditions: complex 4a all doses with 458 nm irradiation; TNFα 100 ng/mL; 72 h
# Procedure: as §1, §2
# [3] = tested on: MCF7/FasR and MCF7/FasR/Bcl-xL cells; assay: Bcl-xL dependence of cell death, MTT in MCF7/FasR vs MCF7/FasR/Bcl-xL; conditions: complexes: 458 nm irradiation, 10 nM to 1 µM, TNFα 100 ng/mL, 72 h
# Text: To determine the mechanism of cell death, we used MCF7 cells transfected to express the human Fas receptor (FasR) or doubly transfected to express the human Fas receptor and human Bcl-xL [75]. Since MCF7 cells express the TNF receptor endogenously, this allowed the study of both Fas- and TNFα-mediated apoptosis in the same cell model to assess whether cell death was dependent on the Bcl-2 family of mitochondrial proteins such as Bcl-xL. […]
# Mitochondrial outer membrane permeabilization (MOMP), which leads to rapid cell death through the release of mitochondrial proteins (including cytochrome c) that activate executioner caspases, is the critical event in intrinsic apoptosis. […] We then assessed whether the cell death induced by our complexes could be abrogated by the overexpression of Bcl-xL.
# A tetrazolium-based MTT reagent (3-(4,5-dimethylthiazol-2-yl)-2,5-diphenyltetrazolium bromide) was used to determine cell viability, as previously described. […] After solubilization with 500 μL of lysis buffer (DMSO), formazan was quantified by spectrophotometry with a microplate reader at 570 nm absorbance (ClarioSTAR, BMG LabTech, Champigny-sur-Marne, France). […] All results were calculated from data obtained in at least three independent experiments. […]
# Figure 13 Evaluation of apoptotic biomarkers. […] (B) MTT, ATP and GSH assays were evaluated in duplicate samples. […]
structure (smiles),measurement,setting,value
CC(C)[n+]1ccn2[c]1[Ir-3]13([c]4ccccc4-c4cccc[n+]41)([c]1ccccc1-c1cccc[n+]13)[c]1n(cc[n+]1C(C)C)C2.F[P-](F)(F)(F)(F)F [Complex 4a],ATP level,[1],loss of ATP
same,level of reduced GSH,[2],decreased
same,effect of Bcl-xL overexpression on loss of cell viability,[3],not affected by Bcl-xL overexpression
